# Results: PMC12587552, “A nitrogen-containing diphyllin derivative C156-P1 exhibited broad-spectrum antiviral activity against Flaviviridae viruses by preventing endosomal acidification” (Antimicrobial Agents and Chemotherapy, 2025)
# Read-outs that look alike come from different tables or passages of the source.
# Legend:
# [1] = system: DENV-2; set-up: method as in PMID 30125275; details: read-out: EC50 against DENV-2 infection; cited from earlier work
# [2] = molecular target: V-ATPase (Homo sapiens, UniProt Q9Y487); assay: ATPase activity assay on lysate of treated cells; assay type: cell-based; details: A549 cells treated 24 h; C156-P1 100 nM or 1000 nM, PHY34 100 nM, Baf-A1 100 nM; 2 µg total cell protein
# [3] = system: endosomal acidification in A549 cells; assay: Endosomal acidification, LysoSensor DND-189 flow cytometry; assay type: cell-based, human; details: A549 cells pretreated 12 h; C156-P1 100 nM or 1 µM, Baf-A1 100 nM
# [4] = system: other Flaviviridae viruses; details: cited from earlier work
# [5] = system: DENV-2
# [6] = system: ATP6V0A2; assay: ATP6V0A2 mRNA level by RT-qPCR; assay type: cell-based, human; details: A549 cells, 100 nM, 48 h
# [7] = system: ZIKV; set-up: method as in PMID 29033372, PMID 28694387; details: cited from earlier work
# [8] = system: DENV-2; assay: microbe, parasite or virus in culture; details: Dengue virus, DENV2, A549, 48 h, read-out: EC50 against DENV-2
# [9] = in vitro; details: human
# [10] = system: ZIKV; details: cited from earlier work
# V-ATPase, sequence (Q9Y487 whole entry, looked up): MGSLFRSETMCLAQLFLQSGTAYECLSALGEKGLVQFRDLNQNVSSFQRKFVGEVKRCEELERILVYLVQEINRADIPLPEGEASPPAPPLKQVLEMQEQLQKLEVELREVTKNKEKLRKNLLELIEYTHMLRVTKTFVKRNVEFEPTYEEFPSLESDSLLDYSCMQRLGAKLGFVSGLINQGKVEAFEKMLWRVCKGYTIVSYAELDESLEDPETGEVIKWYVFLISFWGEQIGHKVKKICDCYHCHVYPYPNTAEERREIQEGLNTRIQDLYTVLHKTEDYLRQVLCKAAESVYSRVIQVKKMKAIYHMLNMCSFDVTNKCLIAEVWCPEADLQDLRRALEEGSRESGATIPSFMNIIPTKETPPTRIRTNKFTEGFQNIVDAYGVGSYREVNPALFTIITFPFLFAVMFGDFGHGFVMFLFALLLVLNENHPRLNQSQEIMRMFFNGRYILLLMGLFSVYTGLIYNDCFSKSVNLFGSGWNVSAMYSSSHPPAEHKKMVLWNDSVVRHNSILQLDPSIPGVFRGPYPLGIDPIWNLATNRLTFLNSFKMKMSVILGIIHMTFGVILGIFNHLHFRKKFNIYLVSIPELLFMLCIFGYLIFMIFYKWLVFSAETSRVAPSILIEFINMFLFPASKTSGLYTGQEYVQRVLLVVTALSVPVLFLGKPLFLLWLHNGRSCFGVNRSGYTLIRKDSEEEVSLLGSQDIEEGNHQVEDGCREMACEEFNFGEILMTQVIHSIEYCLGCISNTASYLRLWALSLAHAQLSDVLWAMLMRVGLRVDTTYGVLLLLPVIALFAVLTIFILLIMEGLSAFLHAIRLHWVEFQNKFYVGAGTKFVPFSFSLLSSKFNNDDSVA
smiles,measurement,setting,value
O=C(Nc1ccc([N+](=O)[O-])cc1Cl)c1cc(Cl)ccc1O [niclosamide],EC50,[1],~10000 nM
"CO/C1=C\C(C)=C\[C@@H](C)[C@@H](O)[C@@H](C)C/C(C)=C/C=C/[C@H](OC)[C@@H]([C@@H](C)[C@@H](O)[C@H](C)[C@@]2(O)C[C@@H](O)[C@H](C)[C@@H](C(C)C)O2)OC1=O [Baf-A1, bafilomycin A1]",V-ATPase activity,[2],significantly reduced V-ATPase activity
same,Endosomal acidification (FITC intensity of LysoSensor DND-189),[3],shifted the peak of FITC leftward
COc1cc(N[C@H](C(=O)c2c[nH]c3ccc(OC(F)(F)F)cc23)c2ccc(Cl)cc2OC)cc(S(C)(=O)=O)c1 [JNJ-1802],Inhibitory effects against other Flaviviridae viruses,[4],lacks inhibitory effects
"COc1cc2c(O[C@@H]3O[C@H](CO)[C@@H]4OC(C)(C)O[C@@H]4[C@H]3O)c3c(c(-c4ccc5c(c4)OCO5)c2cc1OC)C(=O)OC3 [PHY34, reference compound]",V-ATPase activity,[2],significantly reduced V-ATPase activity
same,"DENV-2 infection (NS3 protein, Western blot)","[5]; A549 cells, MOI = 2, 48 h, indicated concentrations",inhibited endosomal acidification and DENV-2 infection in a dose-dependent manner
same,Endosomal acidification (FITC intensity of LysoSensor DND-189),[3],inhibited endosomal acidification
same,ATP6V0A2 mRNA expression,[6],decrease in ATP6V0A2 mRNA expression
CCN(CCO)CCCC(C)Nc1ccnc2cc(Cl)ccc12 (centres unmarked) [hydroxychloroquine],Inhibitory concentration (dose) required in mice against ZIKV,[7],40 mg/kg
"COc1cc2c(O[C@@H]3O[C@H](C)[C@@H](O)[C@H](O)[C@H]3O)c3c(c(-c4ccc5c(c4)OCO5)c2cc1OC)C(=O)OC3 [PTA, patentiflorin A, reference compound]",SI (ratio of CC50 to EC50),[5],5.12
same,EC50,[8],38.1 nM
same,CC50,[9],195 nM
"COc1cc2c(O)c3c(c(-c4ccc5c(c4)OCO5)c2cc1OC)C(=O)OC3 [DP, diphyllin]",SI (ratio of CC50 to EC50),"[5]; A549 cells, DENV-2",39.98
same,EC50,[8],401 nM
same,CC50,[9],16000 nM
CCN(CC)CCCC(C)Nc1ccnc2cc(Cl)ccc12 (centres unmarked) [chloroquine],Inhibitory concentrations necessary for ZIKV infection in cell culture,[10],micromolar range
same,Inhibitory concentration (dose) required in mice against ZIKV,[7],100 mg/kg
